Experiments:
[1] = rats, intraperitoneal; cited from earlier work
[2] = target: Human serotonin 5HT2B receptor (Homo sapiens, UniProt P41595); experiment: Competitive radioligand binding to 5HT2B receptor membranes
Procedure: Human serotonin 5HT2B receptor membrane preparations were divided into aliquots. On the day of the assay, membranes were diluted at 1:200 in incubation buffer. […] To each well was added 150 μL membrane preparation, 50 μL test compound, non-specific compound, or buffer alone, as well as 50 μL radioligand. The plate was incubated at 35° C. for 90 minutes with gentle agitation. […] For each concentration of drug, non-specific binding was subtracted from total binding to give specific binding. […] Ki was subsequently calculated using the ChengPrusoff equation.

[3] = Methylone PTSD case series with long-term follow-up (CGI-I, safety); format: in vivo, human
Description: The patients were not given structured psychotherapy in conjunction with methylone treatment, which differs from recent studies of MDMA that emphasize the importance of a manualized psychedelic-assisted psychotherapy model.
No protected health information was disclosed, and no consent was obtained from patients for use of their archival data. Case narratives were systematically compiled from data collected as part of routine clinical work. Diagnoses were confirmed by an experienced clinician using semi-structured interviews. Baseline symptom severity was evaluated using the Clinical Global Impressions Scale-Severity (CGI-S). Symptom improvement was evaluated using the Clinical Global Impressions Scale-Improvement (CGI-I) following dosing. […] Because these case narratives were examined retrospectively from routine clinical care records, and not gathered prospectively in a research study, more specific validated rating scales for assessing PTSD symptoms were not available. Additionally, follow-up varied, with the length of follow-up ranging from one week (Case 2) to 15 years (Case 16).
Dosing summary: Methylone was administered orally. Other medications were not changed during methylone treatment. […] In several cases, treatment was continued, and, in some cases, the dose was further escalated in later sessions (see Table 5). Booster doses were included for 19 patients in one or more of the sessions. Starting doses were between 100 and 270 mg, and these as well as booster doses were selected based on clinical judgement.

[4] = system: myelin basic protein (MBP); experiment: Myelin basic protein immunohistochemistry in amygdala; format: in vivo, rat; settings: 10 mg/kg IP, 24 h
Procedure: Immunohistochemistry: The in-life portion of the study was conducted at WuXi Apptec (Cranbury, NJ). Sectioning and staining of brains took place at Neuroscience Associates (NSA, Knoxville, TN). […] Brains were post-fixed in PFA before shipment to NSA for processing and staining. Hemisected brains were mounted, sectioned and stained using standard protocols with myelin-basic protein primary antibody (MBP SMI-99, 1:5000, Biolegend, San Diego, CA) and anti-mouse biotinylated secondary antibody (BA-2001, Vector Laboratories, Newark, CA). Slides were imaged using a Huron Digital Pathology TissueScope LE120 whole slide scanning system. 20× objective was used with a 0.4 μm/pixel resolution.

5HT2A receptor = target: T1, 5HT2A receptor (Homo sapiens, UniProt P28223); experiment: GPCRmax screen, agonist mode, 5HT2A; format: cell-based; settings: 1 or 10 mM
T1 construct: host or cells: PathHunter cell lines
T1 sequence (P28223 whole entry): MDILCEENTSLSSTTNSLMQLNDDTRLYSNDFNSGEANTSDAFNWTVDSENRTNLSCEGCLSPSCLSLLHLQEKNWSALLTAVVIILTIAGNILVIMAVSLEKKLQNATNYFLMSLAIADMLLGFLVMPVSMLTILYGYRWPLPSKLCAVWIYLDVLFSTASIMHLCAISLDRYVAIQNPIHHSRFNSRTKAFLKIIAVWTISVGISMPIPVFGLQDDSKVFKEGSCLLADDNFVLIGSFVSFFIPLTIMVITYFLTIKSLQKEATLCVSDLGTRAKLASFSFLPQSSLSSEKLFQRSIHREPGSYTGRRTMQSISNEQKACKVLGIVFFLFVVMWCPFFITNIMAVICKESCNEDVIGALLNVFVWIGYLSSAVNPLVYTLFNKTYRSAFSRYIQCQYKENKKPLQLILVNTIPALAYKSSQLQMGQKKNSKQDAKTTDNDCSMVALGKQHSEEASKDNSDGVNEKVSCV

5HT5A = target: T2, 5HT5A (Homo sapiens, UniProt P47898); experiment: GPCRmax screen, agonist mode, 5HT5A; format: cell-based; settings: 1 or 10 mM
T2 construct: host or cells: PathHunter cell lines
T2 sequence (P47898 whole entry): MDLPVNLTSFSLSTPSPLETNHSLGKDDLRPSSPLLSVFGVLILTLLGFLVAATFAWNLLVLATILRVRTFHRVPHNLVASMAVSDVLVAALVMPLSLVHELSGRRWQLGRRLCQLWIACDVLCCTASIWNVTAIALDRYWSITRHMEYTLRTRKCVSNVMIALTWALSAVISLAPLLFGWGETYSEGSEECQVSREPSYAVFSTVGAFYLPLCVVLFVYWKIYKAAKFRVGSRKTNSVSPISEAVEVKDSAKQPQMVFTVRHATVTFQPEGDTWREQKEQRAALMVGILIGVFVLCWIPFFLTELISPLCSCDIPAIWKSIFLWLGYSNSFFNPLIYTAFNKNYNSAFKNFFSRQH

[5] = system: Sprague Dawley rat neurons; experiment: Neurite outgrowth in E18 cortical cultures; format: cell-based; settings: 10 μM, applied day 1, fixed day 3-4
Procedure: Neuroplasticity is defined as changes in the structure, connections and function of neurons, including neurite outgrowth. […] E18 cortical cultures were harvested and plated on culture dishes. […] Neurite length was measured using ImageJ software.

[6] = Mouse fear extinction paradigm (PTSD model); format: in vivo; settings: 30 mg/kg IP 30 min before extinction training; day 3
Description: (FIG. 9A) Schematic of experimental design. A single CS-US (tone-shock) pairing on day 1 was followed by 6 CS presentations in a novel context (context B). […] On day 3, the time spent freezing to the CS was quantified. […] (FIG. 9C) No locomotor changes were observed on day 3 (t(26)=1.073, p>0.05). Data are mcan+/−SEM.
FIGS. 10A-10B: MBDB improves fear extinction in a PTSD mouse model. A single CS-US (tone-shock) pairing on day 1 was followed by 6 conditioned stimulus (CS) presentations in a novel context (context B). MBDB or saline vehicle was injected 30 min prior to extinction training on day 2. The time spent freezing to the CS was quantified on day 2. […] Data are mean+/−SEM. N=10 for MBDB group (5 mg/kg, IP) and N=16 for saline control group. **p<0.01 vs. vehicle control group.
Effective PTSD treatments facilitate the disassociation between a traumatic memory and the patient's fear response, making cues for the traumatic memory evoke less of a fear response. This is modeled in the mouse fear extinction paradigm (see FIG. 9A) which takes place over 3 days. […] On day 3 (extinction recall), the mice are “asked” if that tone (CS) still elicits a fearful response, as measured by the time spent freezing when the tone is presented. […]

Human serotonin 5HT2B receptor, sequence (P41595 whole entry): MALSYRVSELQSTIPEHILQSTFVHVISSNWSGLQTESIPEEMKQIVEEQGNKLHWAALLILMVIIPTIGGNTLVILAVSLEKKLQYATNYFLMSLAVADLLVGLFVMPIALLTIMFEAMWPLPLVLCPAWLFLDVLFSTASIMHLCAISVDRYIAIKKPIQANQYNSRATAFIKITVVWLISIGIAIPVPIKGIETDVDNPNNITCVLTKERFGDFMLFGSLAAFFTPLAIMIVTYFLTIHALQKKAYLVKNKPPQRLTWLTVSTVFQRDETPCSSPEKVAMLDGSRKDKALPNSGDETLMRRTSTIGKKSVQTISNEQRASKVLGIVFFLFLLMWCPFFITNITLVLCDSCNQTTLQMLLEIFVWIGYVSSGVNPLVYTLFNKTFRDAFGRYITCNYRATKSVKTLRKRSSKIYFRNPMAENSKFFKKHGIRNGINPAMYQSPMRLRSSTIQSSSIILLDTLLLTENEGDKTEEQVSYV

Compound: CNC(C)C(=O)c1ccc2c(c1)OCO2 (stereo not shown) [Methylone, 3,4-methylenedioxy-N-methylcathinone]
- half-life [1]: 1 to 2 h
- IC50 [2]: 4.28 µM
- Ki [2]: 3.75 µM
- Adverse events noted ([3]; 21 PTSD patients): four adverse events were noted in three of the 21 patients
- Patients much improved or very much improved per CGI-I ([3]; 21 PTSD patients): 81%
- Patients reporting a durable effect ([3]; of 17 patients with durability information): 16
- Patients achieving CGI-I 1 (very much improved) ([3]; of 21 PTSD patients): 9 patients
- Patients achieving CGI-I 2 (much improved) ([3]; of 21 PTSD patients): 8 patients
- Patients achieving a CGI-I of 1 or 2 ([3]; of 21 PTSD patients): 17 patients
- Patients achieving CGI-I 1 or 2 ([3]; patients with a single dose session (n=9)): 89%
- Patients with initial improvement after the initial session ([3]; patients with multiple dosing sessions (n=12)): 83%
- MBP in basolateral and central nuclei of the amygdala vs. vehicle [4]: significant reduction in MBP
- Agonist % activity (5HT2A receptor): no agonist or antagonist activity
- Agonist % activity (greatest activity detected) (5HT5A): 13.9%
- Increase in neurite length vs. vehicle [5]: ~2 fold
- Enhancement of fear extinction recall vs. saline controls [6]: ~60%

From US12295937B2, “Psychoactive medicines and their use for treating psychiatric and neurological conditions and disorders” (Transcend Therapeutics, Inc., priority 2021, dated 2025)
